Measured values: the NIST ThermoML archive (doi:10.1016/j.jct.2010.09.006)

Assay: cn = amount concentration of the nth substance listed, in mol/dm3
Settings: 101 kPa, Liquid, Taylor dispersion method

[Cl][Ni][Cl] [nickel chloride (NiCl2)] + O
binary diffusion coefficient [m2/s]
Settings | c1 = 0 | c1 = 0.001 | c1 = 0.005 | c1 = 0.01 | c1 = 0.1
298.15 K | 1.26e-09 | 1.23e-09 | 1.12e-09 | 1.04e-09 | 9.86e-10
310.15 K | 1.4e-09 | 1.39e-09 | 1.37e-09 | 1.34e-09 | 1.29e-09
